Data set [1] has as its target T1, Protein deacetylase HDAC6 (Mus musculus) (UniProt Q9Z2V5).
T1 sequence (whole entry): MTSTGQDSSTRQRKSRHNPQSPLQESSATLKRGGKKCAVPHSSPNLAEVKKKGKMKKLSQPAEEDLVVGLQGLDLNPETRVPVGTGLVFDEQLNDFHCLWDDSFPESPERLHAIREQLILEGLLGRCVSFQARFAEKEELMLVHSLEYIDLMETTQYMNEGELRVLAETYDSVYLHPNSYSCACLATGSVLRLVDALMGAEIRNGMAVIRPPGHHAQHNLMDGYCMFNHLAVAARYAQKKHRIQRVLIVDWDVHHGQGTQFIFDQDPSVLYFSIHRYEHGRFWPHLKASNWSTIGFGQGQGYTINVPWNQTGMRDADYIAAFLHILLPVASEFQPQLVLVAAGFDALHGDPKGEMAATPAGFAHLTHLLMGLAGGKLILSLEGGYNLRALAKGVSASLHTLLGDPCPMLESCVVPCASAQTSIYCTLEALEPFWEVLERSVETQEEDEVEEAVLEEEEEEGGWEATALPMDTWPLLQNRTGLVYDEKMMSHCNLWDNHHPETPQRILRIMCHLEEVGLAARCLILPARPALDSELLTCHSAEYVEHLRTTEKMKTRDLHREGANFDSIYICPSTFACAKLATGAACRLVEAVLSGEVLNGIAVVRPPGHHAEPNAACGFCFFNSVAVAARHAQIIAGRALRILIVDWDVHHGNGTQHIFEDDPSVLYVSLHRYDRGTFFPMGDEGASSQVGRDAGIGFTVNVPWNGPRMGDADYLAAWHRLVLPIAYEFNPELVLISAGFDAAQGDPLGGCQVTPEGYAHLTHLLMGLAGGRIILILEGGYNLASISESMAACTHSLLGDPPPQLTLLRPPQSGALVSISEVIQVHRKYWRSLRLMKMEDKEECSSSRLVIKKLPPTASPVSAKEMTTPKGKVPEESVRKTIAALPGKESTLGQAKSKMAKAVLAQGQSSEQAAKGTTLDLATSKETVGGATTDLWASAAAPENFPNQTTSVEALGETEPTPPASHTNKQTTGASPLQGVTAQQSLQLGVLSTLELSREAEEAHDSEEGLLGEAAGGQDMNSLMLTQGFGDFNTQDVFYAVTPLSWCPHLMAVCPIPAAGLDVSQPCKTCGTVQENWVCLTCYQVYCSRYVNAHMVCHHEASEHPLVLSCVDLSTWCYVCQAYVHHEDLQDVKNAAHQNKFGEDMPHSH
The data set is described as follows: Inhibition of HDAC6 in mouse Neuro2a cells assessed as fold increase in ratio of acetylated alpha-tubulin to alpha tubulin at 1 uM incubated for overnight by Western blot analysis. It counts as cell-based. To be noted: time 12.0 hrs. For orientation: In western blotting, separated proteins are transferred to a membrane and probed.

A short description of data set [2]: Half life in liver microsomes. It counts as ADME, Microsome. Background: Liver microsomes are vesicles of endoplasmic reticulum, rich in cytochrome P450 enzymes.
A short description of data set [3]: Half life in hepatocytes. It counts as ADME, cell-based, Hepatocyte.
For data set [4], the target named is T1, Protein deacetylase HDAC6 (Mus musculus). In words: Inhibition of HDAC6 in mouse Neuro2a cells assessed as fold increase in ratio of acetylated alpha-tubulin to alpha tubulin at 0.01 uM incubated for overnight by Western blot analysis. It counts as cell-based. To be noted: time 12.0 hrs.
Data set [5] can be described thus: Stability in CD1 mouse pooled liver microsomes assessed as parent compound remaining measured at 60 mins in presence of NADPH by LC-MS/MS analysis. It counts as ADME, Microsome. To be noted: CD1, mouse, pooled liver microsomes, read-out: Stabilty.
Data set [6] is described as follows: Half life in CD1 mouse pooled liver microsomes assessed as parent compound remaining measured up to 60 mins in presence of NADPH by LC-MS/MS analysis. It counts as ADME, Microsome. To be noted: CD1, mouse, pooled liver microsomes.
Data set [7] can be described thus: Stability in human pooled liver microsomes assessed as parent compound remaining measured at 60 mins in presence of NADPH by LC-MS/MS analysis. It counts as ADME, Microsome. To be noted: microsomes, 1 h.
The nature of data set [8]: Half life in human pooled liver microsomes assessed as parent compound remaining measured up to 60 mins in presence of NADPH by LC-MS/MS analysis. It counts as ADME, Microsome. To be noted: microsomes, 1 h.
In another data set the target is Histone deacetylase 2 (Homo sapiens, UniProt Q92769). The data set is described as follows: Inhibition of recombinant human HDAC2 using Ac-GAK(Ac)-AMC as substrate preincubated for 10 mins followed by substrate addition and measured after 30 mins by fluorescence-based assay.
Chain of Histone deacetylase 2 (Q92769 whole entry): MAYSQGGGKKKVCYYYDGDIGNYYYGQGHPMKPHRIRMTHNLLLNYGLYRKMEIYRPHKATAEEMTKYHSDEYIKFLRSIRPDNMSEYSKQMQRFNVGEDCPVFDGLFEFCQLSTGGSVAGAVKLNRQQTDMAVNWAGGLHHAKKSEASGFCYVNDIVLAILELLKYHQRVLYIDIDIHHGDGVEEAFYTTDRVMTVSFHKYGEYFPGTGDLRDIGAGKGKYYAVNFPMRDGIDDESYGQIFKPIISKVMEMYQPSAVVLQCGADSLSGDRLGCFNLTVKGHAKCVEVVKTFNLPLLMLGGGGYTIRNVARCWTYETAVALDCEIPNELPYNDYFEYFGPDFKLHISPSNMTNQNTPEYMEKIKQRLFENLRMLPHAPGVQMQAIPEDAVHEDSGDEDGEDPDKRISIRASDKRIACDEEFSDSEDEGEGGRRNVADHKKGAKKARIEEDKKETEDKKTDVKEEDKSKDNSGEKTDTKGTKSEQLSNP
The target in another data set is Histone deacetylase 3 (Homo sapiens, UniProt O15379). The data set is described as follows: Inhibition of recombinant human HDAC3 using Ac-GAK(Ac)-AMC as substrate preincubated for 10 mins followed by substrate addition and measured after 30 mins by fluorescence-based assay.
Chain of Histone deacetylase 3 (O15379 whole entry): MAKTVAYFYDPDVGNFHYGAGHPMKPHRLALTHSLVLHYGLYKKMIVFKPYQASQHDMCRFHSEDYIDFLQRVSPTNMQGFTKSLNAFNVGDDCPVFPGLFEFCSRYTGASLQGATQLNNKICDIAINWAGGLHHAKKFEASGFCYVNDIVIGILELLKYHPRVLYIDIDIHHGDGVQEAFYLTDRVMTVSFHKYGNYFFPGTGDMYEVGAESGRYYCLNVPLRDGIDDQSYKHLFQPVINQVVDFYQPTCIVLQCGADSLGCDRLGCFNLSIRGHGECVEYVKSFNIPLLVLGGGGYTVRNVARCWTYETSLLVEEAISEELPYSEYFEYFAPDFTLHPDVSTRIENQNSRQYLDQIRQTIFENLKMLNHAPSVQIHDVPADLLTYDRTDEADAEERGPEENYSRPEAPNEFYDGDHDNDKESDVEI
The next data set deals with Histone deacetylase 4 (Homo sapiens, UniProt P56524). In words: Inhibition of recombinant human HDAC4 using Boc-Lys(TFA)-AMC as substrate preincubated for 10 mins followed by substrate addition and measured after 30 mins by fluorescence-based assay.
Chain of Histone deacetylase 4 (P56524 whole entry): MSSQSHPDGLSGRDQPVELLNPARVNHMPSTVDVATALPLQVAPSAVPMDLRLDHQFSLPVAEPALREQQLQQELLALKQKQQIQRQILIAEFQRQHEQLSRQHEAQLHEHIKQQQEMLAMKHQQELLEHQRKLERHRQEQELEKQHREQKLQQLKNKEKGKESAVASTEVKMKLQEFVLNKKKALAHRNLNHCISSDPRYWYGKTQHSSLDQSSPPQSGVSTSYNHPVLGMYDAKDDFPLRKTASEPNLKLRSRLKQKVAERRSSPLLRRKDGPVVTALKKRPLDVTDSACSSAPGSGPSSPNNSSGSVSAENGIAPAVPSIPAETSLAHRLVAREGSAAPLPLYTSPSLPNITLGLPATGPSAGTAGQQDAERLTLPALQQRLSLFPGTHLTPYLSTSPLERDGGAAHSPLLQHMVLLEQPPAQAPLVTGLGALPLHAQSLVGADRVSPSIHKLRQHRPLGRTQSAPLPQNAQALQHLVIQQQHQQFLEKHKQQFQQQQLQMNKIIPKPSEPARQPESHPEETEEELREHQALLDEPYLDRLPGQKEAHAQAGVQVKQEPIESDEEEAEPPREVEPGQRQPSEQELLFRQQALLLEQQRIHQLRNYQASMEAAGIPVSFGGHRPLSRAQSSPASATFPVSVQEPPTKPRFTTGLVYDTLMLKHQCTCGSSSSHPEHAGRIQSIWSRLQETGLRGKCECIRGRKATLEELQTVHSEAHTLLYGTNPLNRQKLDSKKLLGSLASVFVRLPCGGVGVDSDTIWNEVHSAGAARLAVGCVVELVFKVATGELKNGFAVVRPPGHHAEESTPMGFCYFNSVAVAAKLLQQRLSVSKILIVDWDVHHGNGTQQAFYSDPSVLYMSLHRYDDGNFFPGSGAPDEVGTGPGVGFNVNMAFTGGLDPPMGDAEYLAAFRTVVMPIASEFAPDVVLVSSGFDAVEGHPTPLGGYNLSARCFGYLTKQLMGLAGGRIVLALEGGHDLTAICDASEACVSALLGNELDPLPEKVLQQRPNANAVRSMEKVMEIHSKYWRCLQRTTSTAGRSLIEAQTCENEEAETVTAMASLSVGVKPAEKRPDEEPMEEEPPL
The next data set has as its target Histone deacetylase 5 (Homo sapiens, UniProt Q9UQL6). In words: Inhibition of recombinant human HDAC5 using Boc-Lys(TFA)-AMC as substrate preincubated for 10 mins followed by substrate addition and measured after 30 mins by fluorescence-based assay.
The next data set addresses Histone deacetylase 9 (Homo sapiens, UniProt Q9UKV0). In words: Inhibition of recombinant human HDAC9 using Boc-Lys(TFA)-AMC as substrate preincubated for 10 mins followed by substrate addition and measured after 30 mins by fluorescence-based assay.
For data set [9], the target named is T1, Protein deacetylase HDAC6 (Mus musculus). In words: In vivo inhibition of HDAC6 in wild type mouse assessed as increase in alpha-tubulin acetylation in sciatic nerve tissue at 20 mg/kg, ip administered for 12 hrs by immunoblot analysis relative to control. It counts as functional, organism-based. Also noted: scale not given: the % may be the effect or the level left.

Another data set has as its target T2, Histone deacetylase 8 (Homo sapiens, UniProt Q9BY41).
T2 sequence (Q9BY41 whole entry): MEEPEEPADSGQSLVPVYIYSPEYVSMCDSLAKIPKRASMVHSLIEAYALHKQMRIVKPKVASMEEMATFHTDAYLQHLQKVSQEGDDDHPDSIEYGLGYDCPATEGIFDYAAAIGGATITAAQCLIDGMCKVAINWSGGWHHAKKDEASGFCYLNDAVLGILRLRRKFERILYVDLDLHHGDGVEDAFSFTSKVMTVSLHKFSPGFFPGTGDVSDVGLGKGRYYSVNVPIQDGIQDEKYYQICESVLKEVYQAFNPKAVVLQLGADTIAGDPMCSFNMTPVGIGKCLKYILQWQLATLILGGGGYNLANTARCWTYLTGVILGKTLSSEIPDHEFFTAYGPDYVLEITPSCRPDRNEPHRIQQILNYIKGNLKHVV

The target of a further data set is T3, Histone deacetylase 7 (Homo sapiens, UniProt Q8WUI4).
T3 sequence (Q8WUI4 whole entry): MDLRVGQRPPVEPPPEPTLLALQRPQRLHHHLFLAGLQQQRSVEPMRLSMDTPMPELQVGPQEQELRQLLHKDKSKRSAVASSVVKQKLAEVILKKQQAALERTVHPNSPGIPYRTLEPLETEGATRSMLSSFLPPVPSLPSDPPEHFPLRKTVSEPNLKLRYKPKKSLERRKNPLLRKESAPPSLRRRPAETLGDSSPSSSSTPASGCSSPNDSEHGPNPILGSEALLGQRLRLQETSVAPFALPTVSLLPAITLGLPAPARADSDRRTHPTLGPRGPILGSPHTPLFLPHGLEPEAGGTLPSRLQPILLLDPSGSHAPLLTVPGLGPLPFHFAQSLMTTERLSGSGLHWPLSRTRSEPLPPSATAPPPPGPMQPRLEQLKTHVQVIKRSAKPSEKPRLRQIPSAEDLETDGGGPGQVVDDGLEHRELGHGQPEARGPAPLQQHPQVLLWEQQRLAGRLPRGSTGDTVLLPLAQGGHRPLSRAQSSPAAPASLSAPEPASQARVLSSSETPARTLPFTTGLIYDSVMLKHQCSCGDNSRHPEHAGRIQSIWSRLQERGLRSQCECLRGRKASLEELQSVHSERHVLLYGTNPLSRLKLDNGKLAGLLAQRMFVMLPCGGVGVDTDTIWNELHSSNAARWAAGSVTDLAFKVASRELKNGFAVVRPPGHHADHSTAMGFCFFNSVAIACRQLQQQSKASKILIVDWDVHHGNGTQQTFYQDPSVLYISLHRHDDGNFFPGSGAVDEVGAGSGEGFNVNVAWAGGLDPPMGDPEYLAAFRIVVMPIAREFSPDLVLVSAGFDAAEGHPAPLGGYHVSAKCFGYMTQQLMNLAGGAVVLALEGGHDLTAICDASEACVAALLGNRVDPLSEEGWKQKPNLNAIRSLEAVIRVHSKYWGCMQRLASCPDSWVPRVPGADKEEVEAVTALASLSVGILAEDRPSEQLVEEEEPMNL

Chain of Histone deacetylase 5 (Q9UQL6 whole entry): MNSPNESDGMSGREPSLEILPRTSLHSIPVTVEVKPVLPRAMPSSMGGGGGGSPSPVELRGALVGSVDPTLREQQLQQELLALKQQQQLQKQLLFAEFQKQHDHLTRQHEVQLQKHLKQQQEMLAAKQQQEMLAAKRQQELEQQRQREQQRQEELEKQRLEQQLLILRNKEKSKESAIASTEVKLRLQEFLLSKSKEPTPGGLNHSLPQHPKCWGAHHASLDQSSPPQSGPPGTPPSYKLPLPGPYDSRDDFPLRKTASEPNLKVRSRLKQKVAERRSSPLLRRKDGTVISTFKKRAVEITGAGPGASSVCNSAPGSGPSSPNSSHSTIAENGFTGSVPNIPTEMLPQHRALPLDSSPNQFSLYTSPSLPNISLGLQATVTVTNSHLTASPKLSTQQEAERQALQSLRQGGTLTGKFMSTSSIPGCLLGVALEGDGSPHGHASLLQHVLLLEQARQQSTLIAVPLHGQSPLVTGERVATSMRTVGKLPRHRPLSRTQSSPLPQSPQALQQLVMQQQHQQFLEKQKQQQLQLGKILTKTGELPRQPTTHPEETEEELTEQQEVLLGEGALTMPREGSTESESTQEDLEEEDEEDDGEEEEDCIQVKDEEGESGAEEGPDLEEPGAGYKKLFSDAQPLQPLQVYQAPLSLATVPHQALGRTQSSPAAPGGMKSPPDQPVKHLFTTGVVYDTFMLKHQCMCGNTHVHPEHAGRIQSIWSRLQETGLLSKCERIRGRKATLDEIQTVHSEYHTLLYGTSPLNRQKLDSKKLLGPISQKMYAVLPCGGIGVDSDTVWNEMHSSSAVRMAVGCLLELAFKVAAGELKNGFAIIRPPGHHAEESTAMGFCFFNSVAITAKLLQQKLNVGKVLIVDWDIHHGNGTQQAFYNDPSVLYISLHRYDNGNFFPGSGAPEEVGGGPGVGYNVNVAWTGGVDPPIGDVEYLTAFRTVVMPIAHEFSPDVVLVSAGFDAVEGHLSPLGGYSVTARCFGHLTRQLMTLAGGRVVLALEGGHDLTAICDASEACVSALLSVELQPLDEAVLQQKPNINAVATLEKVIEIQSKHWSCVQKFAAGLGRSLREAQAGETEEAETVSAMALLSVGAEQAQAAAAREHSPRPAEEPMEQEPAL
Chain of Histone deacetylase 9 (Q9UKV0 whole entry): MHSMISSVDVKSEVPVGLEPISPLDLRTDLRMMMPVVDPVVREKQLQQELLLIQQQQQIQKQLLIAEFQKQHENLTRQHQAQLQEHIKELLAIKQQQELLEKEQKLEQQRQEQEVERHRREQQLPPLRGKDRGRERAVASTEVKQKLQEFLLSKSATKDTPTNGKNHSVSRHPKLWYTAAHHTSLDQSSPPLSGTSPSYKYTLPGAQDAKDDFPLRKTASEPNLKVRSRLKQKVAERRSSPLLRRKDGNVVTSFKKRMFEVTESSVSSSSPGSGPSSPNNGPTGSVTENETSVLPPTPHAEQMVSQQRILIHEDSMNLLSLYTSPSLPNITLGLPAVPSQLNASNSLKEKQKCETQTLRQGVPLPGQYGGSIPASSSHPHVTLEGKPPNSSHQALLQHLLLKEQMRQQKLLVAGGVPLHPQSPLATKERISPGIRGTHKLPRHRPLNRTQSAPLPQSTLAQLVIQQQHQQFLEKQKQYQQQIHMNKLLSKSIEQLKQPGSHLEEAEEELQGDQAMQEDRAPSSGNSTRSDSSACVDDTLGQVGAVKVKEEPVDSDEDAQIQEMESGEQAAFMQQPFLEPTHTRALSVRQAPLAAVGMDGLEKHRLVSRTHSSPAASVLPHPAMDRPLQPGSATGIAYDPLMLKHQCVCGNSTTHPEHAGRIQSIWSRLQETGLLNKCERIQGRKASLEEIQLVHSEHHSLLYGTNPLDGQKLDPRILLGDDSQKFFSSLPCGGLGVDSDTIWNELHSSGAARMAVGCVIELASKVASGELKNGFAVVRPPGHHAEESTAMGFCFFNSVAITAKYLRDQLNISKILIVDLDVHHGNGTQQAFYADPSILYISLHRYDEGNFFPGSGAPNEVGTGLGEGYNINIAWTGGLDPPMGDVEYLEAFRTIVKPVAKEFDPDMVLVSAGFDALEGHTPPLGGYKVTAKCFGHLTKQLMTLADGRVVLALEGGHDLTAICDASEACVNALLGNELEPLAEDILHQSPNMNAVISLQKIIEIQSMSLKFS
Description for Histone deacetylase 7: Inhibition of recombinant human HDAC7 using Boc-Lys(TFA)-AMC as substrate preincubated for 10 mins followed by substrate addition and measured after 30 mins by fluorescence-based assay
Description for Histone deacetylase 8: Inhibition of recombinant human HDAC8 using Boc-Lys(TFA)-AMC as substrate preincubated for 10 mins followed by substrate addition and measured after 30 mins by fluorescence-based assay

Regarding `O=C(NO)c1ccc(CN2CCCc3cc(Cl)ccc32)cc1`, the fold change (FC) in [1] and in data set [4] was 1 in each case. Besides, the half-life in data set [2] was under 30 min; in data set [3] it was under 30 min; in [6], 31.9 min. Also, the remaining at 1 h in [5] is 27.3%. Moreover, in data set [7], the Stabilty stood at 42.6%. Moreover, in [8], the t1/2 came to 483 min. Moreover, the half-inhibitory concentration (IC50) was found to be 282 nM on Histone deacetylase 2; 1270 nM at Histone deacetylase 3; 2140 nM on Histone deacetylase 4; 1480 nM at Histone deacetylase 5; 3400 nM at Histone deacetylase 9; 3060 nM at Histone deacetylase 8. On Histone deacetylase 7, this molecule yielded an IC50 of 511 nM. In addition, the Activity in data set [9] was determined as 125%.

As a reminder, the half-life is the time in which the quantity being followed falls by half. Usually IC50 stands for the concentration at which inhibition is half-maximal.

These data come from ChEMBL document CHEMBL4823254, “Tetrahydroquinoline-Capped Histone Deacetylase 6 Inhibitor SW-101 Ameliorates Pathological Phenotypes in a Charcot-Marie-Tooth Type 2A Mouse Model” (J Med Chem, 2021).
